Measured values published in ChEMBL document CHEMBL5131391, “One-pot three-component synthesis of novel pyrazolo[3,4-b]pyridines as potent antileukemic agents” (Eur J Med Chem, 2022).

Experiments:
Type in all cases: functional
HCT-116 = assay: Antiproliferative activity against human HCT-116 cells assessed as growth inhibition at 10 uM measured after 48 hrs by NCI protocol based SRB assay relative to control; conditions: read-out: GI
NCI/ADR-RES = assay: Antiproliferative activity against human NCl/ADR-RES cells assessed as growth inhibition at 10 uM measured after 48 hrs by NCI protocol based SRB assay relative to control; conditions: read-out: GI
786-0 = assay: Antiproliferative activity against human 786-0 cells assessed as growth inhibition at 10 uM measured after 48 hrs by NCI protocol based SRB assay relative to control; conditions: read-out: GI
SW-620 = assay: Antiproliferative activity against human SW-620 cells assessed as growth inhibition at 10 uM measured after 48 hrs by NCI protocol based SRB assay relative to control; conditions: read-out: GI
SK-MEL-5 = assay: Antiproliferative activity against human SK-MEL-5 cells assessed as growth inhibition at 10 uM measured after 48 hrs by NCI protocol based SRB assay relative to control; conditions: read-out: GI
K562 [1] = assay: Antiproliferative activity against human K562 cells assessed as reduction in cell viability incubated for 72 hrs by resazurin dye based assay; conditions: K562, 72 h
OVCAR-3 = assay: Antiproliferative activity against human OVCAR-3 cells assessed as growth inhibition at 10 uM measured after 48 hrs by NCI protocol based SRB assay relative to control; conditions: read-out: GI
CCRF-CEM = assay: Antiproliferative activity against human CCRF-CEM cells assessed as growth inhibition at 10 uM measured after 48 hrs by NCI protocol based SRB assay relative to control; conditions: read-out: GI
EKVX = assay: Antiproliferative activity against human EKVX cells assessed as growth inhibition at 10 uM measured after 48 hrs by NCI protocol based SRB assay relative to control; conditions: read-out: GI
U-251 = assay: Antiproliferative activity against human U-251 cells assessed as growth inhibition at 10 uM measured after 48 hrs by NCI protocol based SRB assay relative to control; conditions: read-out: GI
ACHN = assay: Antiproliferative activity against human ACHN cells assessed as growth inhibition at 10 uM measured after 48 hrs by NCI protocol based SRB assay relative to control; conditions: read-out: GI
DU-145 = assay: Antiproliferative activity against human DU-145 cells assessed as growth inhibition at 10 uM measured after 48 hrs by NCI protocol based SRB assay relative to control; conditions: read-out: GI
A549 = assay: Antiproliferative activity against human A549 cells assessed as growth inhibition at 10 uM measured after 48 hrs by NCI protocol based SRB assay relative to control; conditions: read-out: GI
MDA-MB-231 = assay: Antiproliferative activity against human MDA-MB-231 cells assessed as growth inhibition at 10 uM measured after 48 hrs by NCI protocol based SRB assay relative to control; conditions: read-out: GI
PC-3 = assay: Antiproliferative activity against human PC-3 cells assessed as growth inhibition at 10 uM measured after 48 hrs by NCI protocol based SRB assay relative to control; conditions: read-out: GI
K562 [2] = assay: Antiproliferative activity against human K562 cells assessed as growth inhibition at 10 uM measured after 48 hrs by NCI protocol based SRB assay relative to control; conditions: read-out: GI
SK-MEL-2 = assay: Antiproliferative activity against human SK-MEL-2 cells assessed as growth inhibition at 10 uM measured after 48 hrs by NCI protocol based SRB assay relative to control; conditions: read-out: GI
HL-60(TB) = assay: Antiproliferative activity against human HL-60(TB) cells assessed as growth inhibition at 10 uM measured after 48 hrs by NCI protocol based SRB assay relative to control; conditions: read-out: GI
HCT-15 = assay: Antiproliferative activity against human HCT-15 cells assessed as growth inhibition at 10 uM measured after 48 hrs by NCI protocol based SRB assay relative to control; conditions: read-out: GI
Hs-578T = assay: Antiproliferative activity against human Hs-578T cells assessed as growth inhibition at 10 uM measured after 48 hrs by NCI protocol based SRB assay relative to control; conditions: read-out: GI
KM12 = assay: Antiproliferative activity against human KM12 cells assessed as growth inhibition at 10 uM measured after 48 hrs by NCI protocol based SRB assay relative to control; conditions: read-out: GI
MOLT-4 = assay: Antiproliferative activity against human MOLT-4 cells assessed as growth inhibition at 10 uM measured after 48 hrs by NCI protocol based SRB assay relative to control; conditions: read-out: GI
SK-MEL-28 = assay: Antiproliferative activity against human SK-MEL-28 cells assessed as growth inhibition at 10 uM measured after 48 hrs by NCI protocol based SRB assay relative to control; conditions: read-out: GI
NCI-H460 = assay: Antiproliferative activity against human NCI-H460 cells assessed as growth inhibition at 10 uM measured after 48 hrs by NCI protocol based SRB assay relative to control; conditions: read-out: GI
NCI-H522 = assay: Antiproliferative activity against human NCI-H522 cells assessed as growth inhibition at 10 uM measured after 48 hrs by NCI protocol based SRB assay relative to control; conditions: read-out: GI
M14 = assay: Antiproliferative activity against human M14 cells assessed as growth inhibition at 10 uM measured after 48 hrs by NCI protocol based SRB assay relative to control; conditions: read-out: GI
MV4-11 = assay: Antiproliferative activity against human MV4-11 cells assessed as reduction in cell viability incubated for 72 hrs by resazurin dye based assay; conditions: MV4-11, 72 h
TK-10 = assay: Antiproliferative activity against human TK-10 cells assessed as growth inhibition at 10 uM measured after 48 hrs by NCI protocol based SRB assay relative to control; conditions: read-out: GI
HOP-62 = assay: Antiproliferative activity against human HOP-62 cells assessed as growth inhibition at 10 uM measured after 48 hrs by NCI protocol based SRB assay relative to control; conditions: read-out: GI
OVCAR-4 = assay: Antiproliferative activity against human OVCAR-4 cells assessed as growth inhibition at 10 uM measured after 48 hrs by NCI protocol based SRB assay relative to control; conditions: read-out: GI
SF-268 = assay: Antiproliferative activity against human SF-268 cells assessed as growth inhibition at 10 uM measured after 48 hrs by NCI protocol based SRB assay relative to control; conditions: read-out: GI
LOX IMVI = assay: Antiproliferative activity against human LOX IMVI cells assessed as growth inhibition at 10 uM measured after 48 hrs by NCI protocol based SRB assay relative to control; conditions: read-out: GI
NCI-H23 = assay: Antiproliferative activity against human NCI-H23 cells assessed as growth inhibition at 10 uM measured after 48 hrs by NCI protocol based SRB assay relative to control; conditions: read-out: GI
SNB-19 = assay: Antiproliferative activity against human SNB-19 cells assessed as growth inhibition at 10 uM measured after 48 hrs by NCI protocol based SRB assay relative to control; conditions: read-out: GI
UO-31 = assay: Antiproliferative activity against human UO-31 cells assessed as growth inhibition at 10 uM measured after 48 hrs by NCI protocol based SRB assay relative to control; conditions: read-out: GI
RXF 393 = assay: Antiproliferative activity against human RXF 393 cells assessed as growth inhibition at 10 uM measured after 48 hrs by NCI protocol based SRB assay relative to control; conditions: read-out: GI

| SMILES | inhibition of growth at 10 µM (HCT-116) [%] | inhibition of growth at 10 µM (NCI/ADR-RES) [%] | inhibition of growth at 10 µM (786-0) [%] | inhibition of growth at 10 µM (SW-620) [%] | inhibition of growth at 10 µM (SK-MEL-5) [%] | IC50 (K562 [1]) [µM] | inhibition of growth at 10 µM (OVCAR-3) [%] | inhibition of growth at 10 µM (CCRF-CEM) [%] | inhibition of growth at 10 µM (EKVX) [%] | inhibition of growth at 10 µM (U-251) [%] | inhibition of growth at 10 µM (ACHN) [%] | inhibition of growth at 10 µM (DU-145) [%] | inhibition of growth at 10 µM (A549) [%] | inhibition of growth at 10 µM (MDA-MB-231) [%] | inhibition of growth at 10 µM (PC-3) [%] | inhibition of growth at 10 µM (SK-MEL-2) [%] | inhibition of growth at 10 µM (HCT-15) [%] | inhibition of growth at 10 µM (Hs-578T) [%] | inhibition of growth at 10 µM (KM12) [%] | inhibition of growth at 10 µM (SK-MEL-28) [%] | also measured |
| --- | --- | --- | --- | --- | --- | --- | --- | --- | --- | --- | --- | --- | --- | --- | --- | --- | --- | --- | --- | --- | --- |
| N#Cc1c(-c2ccco2)nc2c(c(-c3ccccc3)nn2-c2ccccc2)c1-c1ccc(O)cc1 | 64 | 24 | 41 | 53 | 13 | 4.2 | 14 | 59 | 44 | 39 | 28 | 25 | 54 | 18 | 77 | 30 | 62 | 47 | 58 | 24 | inhibition of growth at 10 µM (K562 [2]): 85%; inhibition of growth at 10 µM (HL-60(TB)): 78%; inhibition of growth at 10 µM (MOLT-4): 91%; inhibition of growth at 10 µM (NCI-H460): 51%; inhibition of growth at 10 µM (NCI-H522): 81%; inhibition of growth at 10 µM (M14): 35%; IC50 (MV4-11): 13.8 µM; inhibition of growth at 10 µM (TK-10): 11%; inhibition of growth at 10 µM (HOP-62): 149%; inhibition of growth at 10 µM (OVCAR-4): 23%; inhibition of growth at 10 µM (SF-268): 33% |
| N#Cc1c(-c2ccccc2)nc2c(c(-c3ccccc3)nn2-c2ccccc2)c1-c1ccc(O)cc1 | 66 | 30 | 97 | 84 | 42 | 9.6 | 46 | 78 | 55 | 76 | 58 | 51 | 59 | 77 | 96 | 28 | 66 | 85 | 53 | 51 | inhibition of growth at 10 µM (LOX IMVI): 148%; inhibition of growth at 10 µM (NCI-H23): 56%; inhibition of growth at 10 µM (SNB-19): 61%; inhibition of growth at 10 µM (NCI-H460): 91%; inhibition of growth at 10 µM (NCI-H522): 99%; inhibition of growth at 10 µM (M14): 44%; IC50 (MV4-11): 26.1 µM; inhibition of growth at 10 µM (TK-10): 79%; inhibition of growth at 10 µM (HOP-62): 75%; inhibition of growth at 10 µM (UO-31): 73%; inhibition of growth at 10 µM (RXF 393): 117%; inhibition of growth at 10 µM (OVCAR-4): 28%; inhibition of growth at 10 µM (SF-268): 45% |
